Experimental data from ChEMBL document CHEMBL3785026, “Pharmacokinetics of erythromycin in patients with severe cirrhosis. Respective influence of decreased serum binding and impaired liver metabolic capacity” (Br J Clin Pharmacol, 1987).

How the values were obtained:
[1] = tested on: Homo sapiens; assay: Unbound renal drug clearance in healthy human subjects (6 subjects) at 500 mg, iv by Sarcina lutea based bioassay; assay type: ADME, organism-based, Kidney; conditions: in vivo
[2] = tested on: Homo sapiens; assay: Unbound renal drug clearance in patient with severe cirrhosis (5 patients) at 500 mg, iv by Sarcina lutea based bioassay; assay type: ADME, organism-based, Kidney; conditions: in vivo
[3] = Volume of distribution at steady state in patient with severe cirrhosis (5 patients) at 500 mg, iv by Sarcina lutea based bioassay; assay type: ADME, organism-based; conditions: human, in vivo, read-out: Vdss
[4] = Unbound fraction in serum of patient with severe cirrhosis (5 patients) at 500 mg, iv by Sarcina lutea based bioassay; assay type: ADME, organism-based; conditions: human
[5] = Unbound fraction in serum of healthy human subjects (6 subjects) at 500 mg, iv by Sarcina lutea based bioassay; assay type: ADME, organism-based
[6] = Volume of distribution at steady state in healthy human subjects (6 subjects) at 500 mg, iv by Sarcina lutea based bioassay; assay type: ADME, organism-based; conditions: in vivo, read-out: Vdss
[7] = Total drug clearance in patient with severe cirrhosis (5 patients) at 500 mg, iv by Sarcina lutea based bioassay; assay type: ADME, organism-based; conditions: human, in vivo
[8] = Total drug clearance in healthy human subjects (6 subjects) at 500 mg, iv by Sarcina lutea based bioassay; assay type: ADME, organism-based; conditions: in vivo
[9] = tested on: Homo sapiens; assay: Unbound drug clearance in patient with severe cirrhosis (5 patients) at 500 mg, iv by Sarcina lutea based bioassay; assay type: ADME, organism-based; conditions: in vivo
[10] = tested on: Homo sapiens; assay: Unbound drug clearance in healthy human subjects (6 subjects) at 500 mg, iv by Sarcina lutea based bioassay; assay type: ADME, organism-based; conditions: in vivo
[11] = tested on: Homo sapiens; assay: Unbound non-renal drug clearance in patient with severe cirrhosis (5 patients) at 500 mg, iv by Sarcina lutea based bioassay; assay type: ADME, organism-based; conditions: in vivo
[12] = tested on: Homo sapiens; assay: Unbound non-renal drug clearance in healthy human subjects (6 subjects) at 500 mg, iv by Sarcina lutea based bioassay; assay type: ADME, organism-based; conditions: in vivo
[13] = Terminal half life in patient with severe cirrhosis (5 patients) at 500 mg, iv by Sarcina lutea based bioassay; assay type: ADME, organism-based; conditions: human, in vivo, read-out: beta t1/2 (converted)
[14] = Terminal half life in healthy human subjects (6 subjects) at 500 mg, iv by Sarcina lutea based bioassay; assay type: ADME, organism-based; conditions: in vivo, read-out: beta t1/2 (converted)

SMILES: CC[C@H]1OC(=O)[C@H](C)[C@@H](O[C@H]2C[C@@](C)(OC)[C@@H](O)[C@H](C)O2)[C@H](C)[C@@H](O[C@@H]2O[C@H](C)C[C@H](N(C)C)[C@H]2O)[C@](C)(O)C[C@@H](C)C(=O)[C@H](C)[C@@H](O)[C@]1(C)O.O=C(O)[C@H](O)[C@@H](O)[C@H](O[C@@H]1O[C@H](CO)[C@@H](O)[C@@H](O)[C@H]1O)[C@H](O)CO
- CL free [1]: 14.5 L/h
- CL free [2]: 11.2 L/h
- Vd [3]: 85.5 L
- fraction unbound [4]: 0.583
- fraction unbound [5]: 0.305
- Vd [6]: 57.6 L
- clearance [7]: 403 mL/min
- clearance [8]: 570 mL/min
- CL free [9]: 42.2 L/h
- CL free [10]: 113.2 L/h
- CL free [11]: 31.6 L/h
- CL free [12]: 98.6 L/h
- half-life [13]: 134 min
- half-life [14]: 81.6 min
